Source: ChEMBL document CHEMBL1201862, “PubChem BioAssay data set” (2004)
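Results reflect a 48-hour exposure of cells in 96-well plates to compound at five concentrations. GI50 = concentration required for 50% inhibition of growth.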 The source made the active and inactive calls. No stated cut-off is given here; in the data, active = GI50 up to about 1.1 µM and inactive = higher.

How the values were obtained:
Assay in all cases: NCI tumour cell line growth inhibition, 48 h
NCI-H522 = system: NCI-H522
SK-MEL-28 = system: SK-MEL-28
LOX IMVI = system: LOX IMVI
HOP-62 = system: HOP-62
SN12C = system: SN12C
SF-268 = system: SF-268
NCI/ADR-RES = system: NCI/ADR-RES
SK-MEL-2 = system: SK-MEL-2
ACHN = system: ACHN
786-0 = system: 786-0
SW-620 = system: SW-620
SNB-19 = system: SNB-19
DU-145 = system: DU-145
PC-3 = system: PC-3
OVCAR-3 = system: OVCAR-3
OVCAR-5 = system: OVCAR-5
OVCAR-8 = system: OVCAR-8
HT-29 = system: HT-29
HOP-92 = system: HOP-92
BT-549 = system: BT-549

SMILES | GI50 (NCI-H522) | GI50 (SK-MEL-28) | GI50 (LOX IMVI) | GI50 (HOP-62) | GI50 (SN12C) | GI50 (SF-268) | GI50 (NCI/ADR-RES) | GI50 (SK-MEL-2) | GI50 (ACHN) | GI50 (786-0) | GI50 (SW-620) | GI50 (SNB-19) | GI50 (DU-145) | GI50 (PC-3) | GI50 (OVCAR-3) | GI50 (OVCAR-5) | GI50 (OVCAR-8) | GI50 (HT-29) | GI50 (HOP-92) | GI50 (BT-549)
COc1cc(/C=N/NC(=O)c2c(Cl)c(Cl)c(Cl)c(Cl)c2-c2nc3cc(C(=O)c4ccccc4)ccc3[nH]2)ccc1O | 22.1 µM (inactive) | 49.2 µM (inactive) | 50.9 µM (inactive) | 38.5 µM (inactive) | 36.5 µM (inactive) | 36.9 µM (inactive) | 20.9 µM (inactive) | 39.3 µM (inactive) | 60.7 µM (inactive) | 37.2 µM (inactive) | 34.5 µM (inactive) | 62.1 µM (inactive) | 73.8 µM (inactive) | 35.2 µM (inactive) | 40 µM (inactive) | > 100 µM (inactive) | 59.3 µM (inactive) | 40.1 µM (inactive) | 76.9 µM (inactive) | 32.7 µM (inactive)
O=C(O)CSc1ccc([N+](=O)[O-])cc1[N+](=O)[O-] | > 100 µM (inactive) | > 100 µM (inactive) | > 100 µM (inactive) | > 100 µM (inactive) | > 100 µM (inactive) | > 100 µM (inactive) | > 100 µM (inactive) | > 100 µM (inactive) | > 100 µM (inactive) | > 100 µM (inactive) | > 100 µM (inactive) | > 100 µM (inactive) | > 100 µM (inactive) | > 100 µM (inactive) | > 100 µM (inactive) | > 100 µM (inactive) | > 100 µM (inactive) | > 100 µM (inactive) | > 100 µM (inactive) | > 100 µM (inactive)
O=C1CC(Br)c2c(Br)sc(Br)c21 (stereo not given) | 12.1 µM (inactive) | 32 µM (inactive) | 14.3 µM (inactive) | 20.9 µM (inactive) | 15.6 µM (inactive) | 23.9 µM (inactive) | 34.5 µM (inactive) | 18.5 µM (inactive) | 17.7 µM (inactive) | 16.3 µM (inactive) | 10.5 µM (inactive) | 27.7 µM (inactive) | 20.7 µM (inactive) | 19.1 µM (inactive) | 18.9 µM (inactive) | 17.9 µM (inactive) | 16.1 µM (inactive) | 16.7 µM (inactive) | 17.7 µM (inactive) | 19 µM (inactive)
O=C(O)C1(Cc2ccc3c(c2)CCC3)Cc2ccccc2C1 | 42.3 µM (inactive) | 60.8 µM (inactive) | 87.1 µM (inactive) | 84.5 µM (inactive) | > 100 µM (inactive) | 52.7 µM (inactive) | 78.2 µM (inactive) | > 100 µM (inactive) | 53.7 µM (inactive) | > 100 µM (inactive) | > 100 µM (inactive) | > 100 µM (inactive) | > 100 µM (inactive) | 63.5 µM (inactive) | 71.3 µM (inactive) | > 100 µM (inactive) | 63.7 µM (inactive) | 88.3 µM (inactive) | 29 µM (inactive) | 29.8 µM (inactive)
C=C1C(=O)O[C@H]2[C@H]3O[C@@H](C[C@@H]12)[C@@]1(C)CC[C@H](O1)[C@H](C)CCC[C@H]3C | 1.42 µM (inactive) | 1.63 µM (inactive) | 1.55 µM (inactive) | 4.74 µM (inactive) | 2.22 µM (inactive) | 1.67 µM (inactive) | 1.53 µM (inactive) | 2.09 µM (inactive) | 1.51 µM (inactive) | 1.31 µM (inactive) | 1.46 µM (inactive) | 10.1 µM (inactive) | 1.52 µM (inactive) | 1.61 µM (inactive) | 1.1 µM (active) | 1.67 µM (inactive) | 1.38 µM (inactive) | 1.29 µM (inactive) | 1.43 µM (inactive) | 0.811 µM (active)
O=c1oc2cc(O)ccc2cc1-c1nc2ccccc2o1 | 17.1 µM (inactive) | 43.5 µM (inactive) | 44.4 µM (inactive) | 23.3 µM (inactive) | 49.7 µM (inactive) | 32.2 µM (inactive) | 36.4 µM (inactive) | 21.9 µM (inactive) | 32.3 µM (inactive) | 30.5 µM (inactive) | 40.3 µM (inactive) | 29.1 µM (inactive) | 33.3 µM (inactive) | 42.4 µM (inactive) | 19.1 µM (inactive) | > 100 µM (inactive) | 34.8 µM (inactive) | 33.7 µM (inactive) | 26.7 µM (inactive) | 15.5 µM (inactive)
Cc1nc2ccc(NCCN(C)C)c3c(=O)c4cc(O)ccc4n1c23 | 0.112 µM (active) | 3.03 µM (inactive) | 0.379 µM (active) | 0.433 µM (active) | 0.299 µM (active) | 0.75 µM (active) | 1.27 µM (inactive) | 3.35 µM (inactive) | 0.103 µM (active) | 0.228 µM (active) | 0.122 µM (active) | 0.281 µM (active) | 1.46 µM (inactive) | 0.653 µM (active) | 1.27 µM (inactive) | 1.42 µM (inactive) | 0.248 µM (active) | 0.156 µM (active) | 1.12 µM (active) | 3.45 µM (inactive)
COc1cc(C2SC(=N)Nc3c2c(C)nn3C(=O)c2ccc(Cl)cc2)cc(OC)c1OC (stereo not given) | > 10 µM (inactive) | > 10 µM (inactive) | > 10 µM (inactive) | > 10 µM (inactive) | > 10 µM (inactive) | > 10 µM (inactive) | > 10 µM (inactive) | > 10 µM (inactive) | > 10 µM (inactive) | > 10 µM (inactive) | > 10 µM (inactive) | > 10 µM (inactive) | > 10 µM (inactive) | > 10 µM (inactive) | > 10 µM (inactive) | > 10 µM (inactive) | > 10 µM (inactive) | > 10 µM (inactive) | > 10 µM (inactive) | > 10 µM (inactive)
O=c1c2cc(I)ccc2nc(S)n1Cc1ccccc1 | 3.96 µM (inactive) | 43.2 µM (inactive) | 37.8 µM (inactive) | 13.3 µM (inactive) | 10.6 µM (inactive) | 11 µM (inactive) | 18.5 µM (inactive) | 14.6 µM (inactive) | 4.49 µM (inactive) | 11.5 µM (inactive) | 59 µM (inactive) | 18.9 µM (inactive) | 20.2 µM (inactive) | 13.7 µM (inactive) | 6.65 µM (inactive) | 43.1 µM (inactive) | 23.1 µM (inactive) | 32.9 µM (inactive) | 8.75 µM (inactive) | 19.2 µM (inactive)
COc1ccc(CCCNC(=O)c2cc(OC)c(OC)cc2CCO)cc1OC | > 100 µM (inactive) | > 100 µM (inactive) | > 100 µM (inactive) | > 100 µM (inactive) | > 100 µM (inactive) | > 100 µM (inactive) | > 100 µM (inactive) | > 100 µM (inactive) | > 100 µM (inactive) | > 100 µM (inactive) | > 100 µM (inactive) | > 100 µM (inactive) | > 100 µM (inactive) | > 100 µM (inactive) | > 100 µM (inactive) | > 100 µM (inactive) | > 100 µM (inactive) | > 100 µM (inactive) | > 100 µM (inactive) | > 100 µM (inactive)
